Our source for the EC50 and Ki values is US9073931B2, “Liver X receptor modulators” (Vitae Pharmaceuticals, Inc., priority 2012, dated 2015).

pEC50, pKi: −log10 of the molar value. Where two headings read alike, the source gives them in different places.

Broadly, the pEC50 is the EC50 on a negative log10 scale, so that one unit is a factor of ten. One may read the pKi as −log10 of the Ki, conventionally taken in molar units. A low value points to a high Ki.

The target of assay [1] is T1, LBD of LXRβ (Homo sapiens (Human), UniProt P55055).
T1 sequence (P55055 222-460): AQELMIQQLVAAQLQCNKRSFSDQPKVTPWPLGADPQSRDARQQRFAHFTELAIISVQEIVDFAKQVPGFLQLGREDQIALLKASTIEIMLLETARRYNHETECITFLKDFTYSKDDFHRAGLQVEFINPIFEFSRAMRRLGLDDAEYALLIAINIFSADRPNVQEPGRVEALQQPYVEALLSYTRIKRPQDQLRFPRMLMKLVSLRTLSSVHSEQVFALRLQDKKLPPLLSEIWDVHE
For a further assay, the target named is LXR β LBD protein (Homo sapiens (Human), UniProt P55055). As to the kind of experiment: LXR β radioligand binding assay (SPA, [3H]T0901317 competition). To be noted: competition with 15 nM [3H]T0901317, LXRβ LBD.
Chain of LXR β LBD protein (P55055 222-460): as above
Assay [2] has as its target T1, LBD of LXRβ. As to the kind of experiment: cell-based.

Consider `CC(C)C1c2cc3cc(CO)c(S(C)(=O)=O)cc3n2CCN1c1ncc(C(C)(C)O)c(C(F)(F)F)n1` (single isomer, unassigned) [Compound E27a, 2-(2-(8-(hydroxymethyl)-1-isopropyl-7-(methylsulfonyl)-3,4-dihydropyrazino[1,2-a]indol-2(1H)-yl)-4-(trifluoromethyl)pyrimidin-5-yl)propan-2-ol], for which the pEC50 at LBD of LXRβ [1] was 8.00. At LXR β LBD protein, this compound showed a pKi of 8.70.

In the case of `CC(C)C1c2nc3ccc(S(C)(=O)=O)cc3n2CCN1c1ncc(CO)c(C(F)(F)F)n1` (racemic) [Compound E4, (2-(1-isopropyl-7-(methylsulfonyl)-3,4-dihydrobenzo[4,5]imidazo[1,2-a]pyrazin-2(1H)-yl)-4-(trifluoromethyl)pyrimidin-5-yl)methanol], the pEC50 at LBD of LXRβ [2] is 6.53. In addition, the pKi at LXR β LBD protein is 6.86.

Regarding `CCOC(=O)c1cnc(N2CCn3c(nc4cc(CO)c(S(C)(=O)=O)cc43)[C@H]2C(C)C)nc1C(F)(F)F` [Compound E12, (R)-ethyl 2-(8-(hydroxymethyl)-1-isopropyl-7-(methylsulfonyl)-3,4-dihydrobenzo[4,5]imidazo[1,2-a]pyrazin-2(1H)-yl)-4-(trifluoromethyl)pyrimidine-5-carboxylate], the pEC50 at LBD of LXRβ [2] was 7.30. Also, the pKi on LXR β LBD protein is 8.22.

As to `CC(C)[C@H]1c2cc3ccc(S(C)(=O)=O)cc3n2CCN1c1ncc(C(C)(C)O)c(C(F)(F)F)n1` [Compound E23b, (S)-2-(2-(1-isopropyl-7-(methylsulfonyl)-3,4-dihydropyrazino[1,2-a]indol-2(1H)-yl)-4-(trifluoromethyl)pyrimidin-5-yl)propan-2-ol], the pEC50 at LBD of LXRβ [1] was 5.87. Besides, at LXR β LBD protein, the pKi was 5.61.

On LBD of LXRβ [2], `CC(C)[C@H]1c2nc3cc(CO)c(S(C)(=O)=O)cc3n2CCN1c1ncc(CO)c(C2CC2)n1` (single isomer, unassigned) [Compound E20b] gave a negative logarithm of the EC50 (pEC50) below 4.70. This compound gave a pKi on LXR β LBD protein below 5.60.

As to `CC(C)[C@@H]1c2nc3cc(CO)c(S(C)(=O)=O)cc3n2CCN1c1ncc(C(C)(C)O)c(C(F)(F)F)n1` (single isomer, unassigned) [Compound E7a], the pEC50 at LBD of LXRβ [2] was 7.64. The negative-log Ki (pKi) on LXR β LBD protein is 7.85.

Compound `CC(C)[C@@H]1c2cc3ccc(S(C)(=O)=O)cc3n2CCN1c1ncc(CO)c(C(F)(F)F)n1` [Compound E25a, (R)-(2-(1-isopropyl-7-(methylsulfonyl)-3,4-dihydropyrazino[1,2-a]indol-2(1H)-yl)-4-(trifluoromethyl)pyrimidin-5-yl)methanol] gave a negative logarithm of the EC50 (pEC50) at LBD of LXRβ [1] of 7.08. Moreover, the pKi on LXR β LBD protein is 8.22.

The compound `CCCC(O)c1cnc(N2CCn3c(nc4cc(CO)c(S(C)(=O)=O)cc43)[C@H]2C(C)C)nc1C(F)(F)F` (single isomer, unassigned) [Compound E11a] gave a pEC50 at LBD of LXRβ [2] of 7.17. The same compound had a pKi at LXR β LBD protein of 7.85.

For `Cc1cnc(N2CCn3c(nc4cc(CO)c(S(C)(=O)=O)cc43)[C@H]2C(C)C)nc1C(F)(F)F` [Compound E21, (R)-(1-isopropyl-2-(5-methyl-4-(trifluoromethyl)pyrimidin-2-yl)-7-(methylsulfonyl)-1,2,3,4-tetrahydrobenzo[4,5]imidazo[1,2-a]pyrazin-8-yl)methanol], at LBD of LXRβ [2], the pEC50 is 8.00. The compound also gave a pKi on LXR β LBD protein of 8.00.

As to `CC(=O)c1cnc(N2CCn3c(nc4ccc(S(C)(=O)=O)cc43)C2C(C)C)nc1C(F)(F)F` (racemic) [Compound E1, 1-(2-(1-isopropyl-7-(methylsulfonyl)-3,4-dihydrobenzo[4,5]imidazo[1,2-a]pyrazin-2(1H)-yl)-4-(trifluoromethyl)pyrimidin-5-yl)ethanone], the pEC50 on LBD of LXRβ [2] is 6.46. The same compound gave a pKi at LXR β LBD protein of 6.72.

As for `CC(O)c1cnc(N2CCn3c(cc4ccc(S(C)(=O)=O)cc43)C2C(C)C)nc1C(F)(F)F` (single isomer, unassigned) [Compound E24c, 1-(2-(1-isopropyl-7-(methylsulfonyl)-3,4-dihydropyrazino[1,2-a]indol-2(1H)-yl)-4-(trifluoromethyl)pyrimidin-5-yl)ethanol], the negative-log EC50 (pEC50) at LBD of LXRβ [1] was 4.74. For the same compound, the pKi at LXR β LBD protein was 5.77.

`CC(=O)c1cnc(N2CCn3c(cc4ccc(S(C)(=O)=O)cc43)[C@@H]2C(C)C)nc1C(F)(F)F` [Compound E22b, (S)-1-(2-(1-isopropyl-7-(methylsulfonyl)-3,4-dihydropyrazino[1,2-a]indol-2(1H)-yl)-4-(trifluoromethyl)pyrimidin-5-yl)ethanone] showed a pEC50 on LBD of LXRβ [1] of 4.94. The compound also gave a pKi on LXR β LBD protein below 5.60.

`COC(=O)c1cnc(N2CCn3c(nc4cc(CO)c(S(C)(=O)=O)cc43)[C@H]2C(C)C)nc1C(F)(F)F` [Compound E30, (R)-methyl 2-(8-(hydroxymethyl)-1-isopropyl-7-(methylsulfonyl)-3,4-dihydrobenzo[4,5]imidazo[1,2-a]pyrazin-2(1H)-yl)-4-(trifluoromethyl)pyrimidine-5-carboxylate]: the pEC50 at LBD of LXRβ [2] was 7.77. Besides, at LXR β LBD protein, the pKi was 8.00.

Take `CC(O)c1cnc(N2CCn3c(cc4ccc(S(C)(=O)=O)cc43)C2C(C)C)nc1C(F)(F)F` (single isomer, unassigned) [Compound E24a, 1-(2-(1-isopropyl-7-(methylsulfonyl)-3,4-dihydropyrazino[1,2-a]indol-2(1H)-yl)-4-(trifluoromethyl)pyrimidin-5-yl)ethanol]: the pEC50 on LBD of LXRβ [1] is 6.87. The same compound had a pKi on LXR β LBD protein of 8.15.

`CC(C)C1c2cc3cc(CO)c(S(C)(=O)=O)cc3n2CCN1c1ncc(C(C)(C)O)c(C(F)(F)F)n1` (single isomer, unassigned) [Compound E27b, 2-(2-(8-(hydroxymethyl)-1-isopropyl-7-(methylsulfonyl)-3,4-dihydropyrazino[1,2-a]indol-2(1H)-yl)-4-(trifluoromethyl)pyrimidin-5-yl)propan-2-ol] showed a pEC50 at LBD of LXRβ [1] of 5.84. The compound also gave a pKi on LXR β LBD protein of 6.15.

`CC(C)[C@H]1c2cc3ccc(S(C)(=O)=O)cc3n2CCN1c1ncc(CO)c(C(F)(F)F)n1` [Compound E25b, (S)-(2-(1-isopropyl-7-(methylsulfonyl)-3,4-dihydropyrazino[1,2-a]indol-2(1H)-yl)-4-(trifluoromethyl)pyrimidin-5-yl)methanol]: the pEC50 at LBD of LXRβ [1] was 4.97. The pKi at LXR β LBD protein is below 5.60.

On LBD of LXRβ [2], `CC(C)C1c2nc3ccc(S(C)(=O)=O)cc3n2CCN1c1ncc(C(C)(C)O)c(C(F)(F)F)n1` (racemic) [Compound E2, 2-(2-(1-isopropyl-7-(methylsulfonyl)-3,4-dihydrobenzo[4,5]imidazo[1,2-a]pyrazin-2(1H)-yl)-4-(trifluoromethyl)pyrimidin-5-yl)propan-2-ol] showed a negative logarithm of the EC50 (pEC50) of 6.42. This compound gave a pKi at LXR β LBD protein of 6.75.

For `CCOC(=O)c1cnc(N2CCn3c(cc4cc(CO)c(S(C)(=O)=O)cc43)C2C(C)C)nc1C(F)(F)F` (racemic) [Compound E28, (±)-Ethyl 2-(8-(hydroxymethyl)-1-isopropyl-7-(methylsulfonyl)-3,4-dihydropyrazino[1,2-a]indol-2(1H)-yl)-4-(trifluoromethyl)pyrimidine-5-carboxylate], the pEC50 on LBD of LXRβ [2] is 7.14. The compound further gave a pKi on LXR β LBD protein of 8.30.

On to `CC(=O)c1cnc(N2CCn3c(cc4cc(CO)c(S(C)(=O)=O)cc43)C2C(C)C)nc1C(F)(F)F` (racemic) [Compound E26, (±)-1-(2-(8-(hydroxymethyl)-1-isopropyl-7-(methylsulfonyl)-3,4-dihydropyrazino[1,2-a]indol-2(1H)-yl)-4-(trifluoromethyl)pyrimidin-5-yl)ethanone], for which the negative-log EC50 (pEC50) at LBD of LXRβ [2] is 7.80. The pKi on LXR β LBD protein was 8.15.

The compound `CC(C)[C@@H]1c2nc3cc(CO)c(S(C)(=O)=O)cc3n2CCN1c1ncc(C(=O)N(C)C)c(C(F)(F)F)n1` (single isomer, unassigned) [Compound E17a] showed a pEC50 at LBD of LXRβ [2] below 4.70. For the same compound, the pKi at LXR β LBD protein was 6.66.

In turn, `CC(C)[C@H]1c2nc3cc(CO)c(S(C)(=O)=O)cc3n2CCN1c1ncc(C(N)=O)c(C(F)(F)F)n1` (single isomer, unassigned) [Compound E15b] had a negative logarithm of the EC50 (pEC50) at LBD of LXRβ [2] below 4.70. Moreover, the negative logarithm of the Ki (pKi) at LXR β LBD protein was below 5.60.

The compound `CC(C)[C@H]1c2nc3cc(CO)c(S(C)(=O)=O)cc3n2CCN1c1ncc(C(=O)N(C)C)c(C(F)(F)F)n1` (single isomer, unassigned) [Compound E17b] showed a pEC50 on LBD of LXRβ [2] of 5.31. On LXR β LBD protein, the negative logarithm of the Ki (pKi) was below 5.60.

In turn, `CC(C)[C@@H]1c2nc3cc(CO)c(S(C)(=O)=O)cc3n2CCN1c1ncc(CO)c(C2CC2)n1` (single isomer, unassigned) [Compound E20a] gave a pEC50 at LBD of LXRβ [2] below 4.70. Moreover, on LXR β LBD protein, the pKi is 6.96.

Turning to `CC(C)[C@@H]1c2nc3cc(CO)c(S(C)(=O)=O)cc3n2CCN1c1ncc(C(N)=O)c(C(F)(F)F)n1` (single isomer, unassigned) [Compound E15a], at LBD of LXRβ [2], the pEC50 is below 4.70. This compound also showed a pKi at LXR β LBD protein of 6.62.

`CCCC(O)c1cnc(N2CCn3c(nc4cc(CO)c(S(C)(=O)=O)cc43)[C@H]2C(C)C)nc1C(F)(F)F` (single isomer, unassigned) [Compound E11b]: the pEC50 at LBD of LXRβ [2] is 6.99. On LXR β LBD protein, the pKi is 7.64.

`COc1nc(N2CCn3c(nc4cc(CO)c(S(C)(=O)=O)cc43)[C@H]2C(C)C)ncc1C(F)(F)F` [Compound E18, (R)-(1-isopropyl-2-(4-methoxy-5-(trifluoromethyl)pyrimidin-2-yl)-7-(methylsulfonyl)-1,2,3,4-tetrahydrobenzo[4,5]imidazo[1,2-a]pyrazin-8-yl)methanol] showed a negative-log EC50 (pEC50) on LBD of LXRβ [2] of 7.62. In addition, on LXR β LBD protein, the pKi is 8.10.

Take `CC(O)c1cnc(N2CCn3c(cc4ccc(S(C)(=O)=O)cc43)C2C(C)C)nc1C(F)(F)F` (single isomer, unassigned) [Compound E24d, 1-(2-(1-isopropyl-7-(methylsulfonyl)-3,4-dihydropyrazino[1,2-a]indol-2(1H)-yl)-4-(trifluoromethyl)pyrimidin-5-yl)ethanol]: the pEC50 at LBD of LXRβ [1] was below 4.70. The compound further showed a pKi on LXR β LBD protein below 5.60.

Consider `CC(C)[C@H]1c2nc3cc(CO)c(S(C)(=O)=O)cc3n2CCN1c1ncc(C(C)(C)O)c(C(F)(F)F)n1` (single isomer, unassigned) [Compound E7b], for which the pEC50 on LBD of LXRβ [2] was 5.66. The compound further gave a pKi at LXR β LBD protein below 5.60.
